Experiments:
[1] = biological target: BCR fusion to kinase domain of MerTK (Ba/F3-MerTK) (Homo sapiens, UniProt Q12866); experiment: In Cell TAM Kinase Assay Using BaF3 Cellular System; type: cell-based, murine; conditions: Ba/F3 BCR-kinase fusion proliferation, 72 hours, Cell Titer Glo; kinase not given; read-out: IC50
Method in brief: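 Ba/F3 murine pro-B cells expressing BCR–MerTK kinase-domain fusion (IL-3 independent), seeded at 1,000 cells/well onto compound and grown 72 h. Viability read by CellTiter-Glo 2.0 luminescence after 30 min at room temperature.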

[2] = biological target: human MER (528-end) (Homo sapiens (Human), UniProt Q12866); experiment: HTRF Kinase Activity Biochemical Assay (KinEASE-TK); conditions: 10 uM ATP
Chain of human MER (528-end) (Q12866 528-999 limits assumed): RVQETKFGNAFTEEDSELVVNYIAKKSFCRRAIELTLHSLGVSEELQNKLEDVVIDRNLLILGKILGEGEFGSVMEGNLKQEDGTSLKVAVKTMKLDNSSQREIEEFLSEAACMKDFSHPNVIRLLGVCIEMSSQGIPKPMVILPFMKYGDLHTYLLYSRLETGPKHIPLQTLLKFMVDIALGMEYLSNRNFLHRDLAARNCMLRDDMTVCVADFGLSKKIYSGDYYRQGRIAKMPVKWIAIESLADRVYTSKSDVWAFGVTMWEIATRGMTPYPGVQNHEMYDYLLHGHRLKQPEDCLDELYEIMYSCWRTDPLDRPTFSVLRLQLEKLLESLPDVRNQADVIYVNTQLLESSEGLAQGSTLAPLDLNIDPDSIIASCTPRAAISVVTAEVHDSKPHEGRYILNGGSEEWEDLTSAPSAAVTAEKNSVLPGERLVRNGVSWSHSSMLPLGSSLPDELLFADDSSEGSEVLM
Method in brief: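 Activity read-out is the HTRF ratio (665 nm over 620 nm emission, ×10,000; excitation 340 nm) after 1 h detection with 0.375 nM Eu3+-cryptate anti-TK antibody plus 0.062 uM SA-XL665. Preceding kinase step: human MER (528-end), biotinylated TK substrate, 1 h, room temperature.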

Chain of BCR fusion to kinase domain of MerTK (Ba/F3-MerTK) (Q12866 21-999 limits assumed, change not shown): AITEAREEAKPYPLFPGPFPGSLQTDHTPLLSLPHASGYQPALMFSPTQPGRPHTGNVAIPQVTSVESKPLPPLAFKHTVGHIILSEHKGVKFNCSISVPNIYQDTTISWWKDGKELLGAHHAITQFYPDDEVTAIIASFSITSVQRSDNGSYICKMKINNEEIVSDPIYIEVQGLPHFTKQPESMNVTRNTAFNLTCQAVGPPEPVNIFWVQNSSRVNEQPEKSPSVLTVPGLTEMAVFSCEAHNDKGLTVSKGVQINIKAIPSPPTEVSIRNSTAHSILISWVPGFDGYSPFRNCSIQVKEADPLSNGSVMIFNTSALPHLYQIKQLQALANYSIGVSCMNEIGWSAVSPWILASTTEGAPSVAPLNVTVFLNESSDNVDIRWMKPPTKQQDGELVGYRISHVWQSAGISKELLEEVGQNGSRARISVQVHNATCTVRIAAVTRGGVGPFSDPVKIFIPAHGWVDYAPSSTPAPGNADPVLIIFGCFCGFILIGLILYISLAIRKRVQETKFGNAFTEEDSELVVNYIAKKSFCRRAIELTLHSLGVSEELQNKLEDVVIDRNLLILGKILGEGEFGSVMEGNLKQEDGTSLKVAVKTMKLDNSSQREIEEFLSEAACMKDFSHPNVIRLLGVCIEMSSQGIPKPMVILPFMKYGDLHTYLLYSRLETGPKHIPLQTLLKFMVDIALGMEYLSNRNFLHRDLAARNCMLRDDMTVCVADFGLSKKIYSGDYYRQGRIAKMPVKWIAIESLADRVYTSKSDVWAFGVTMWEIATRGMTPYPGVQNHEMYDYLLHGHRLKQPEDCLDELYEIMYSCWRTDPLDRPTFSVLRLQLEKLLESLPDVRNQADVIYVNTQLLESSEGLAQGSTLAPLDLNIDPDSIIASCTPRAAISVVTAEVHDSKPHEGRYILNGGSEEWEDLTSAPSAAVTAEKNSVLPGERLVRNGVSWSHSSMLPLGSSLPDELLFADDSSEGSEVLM

| Compound | IC50 [1] [nM] | IC50 [2] [nM] |
| --- | --- | --- |
| COc1ccc(-c2ccc(C(=O)N3CC[C@@H](NC(=O)c4cc(-c5cnn(C)c5)cnc4N)C3)cc2)cc1OC [Example 659, (R)-2-amino-N-(1-(3′,4′-dimethoxy-[1,1′-biphenyl]-4-carbonyl)pyrrolidin-3-yl)-5-(1-methyl-1H-pyrazol-4-yl)nicotinamide] | > 1000 | 100 to 1000 |
| Cn1cc(-c2cnc(N)c(C(=O)N[C@@H]3CCN(C(=O)c4ccc(-c5ccc(Cl)s5)cc4)C3)c2)cn1 [Example 534, (R)-2-amino-N-(1-(4-(5-chlorothiophen-2-yl)benzoyl)pyrrolidin-3-yl)-5-(1-methyl-1H-pyrazol-4-yl)nicotinamide] | > 1000 | 10 to 100 |
| Cn1cc(-c2cnc(N)c(C(=O)N[C@@H]3CCN(C(=O)c4cc5ccccc5n4Cc4ccccc4)C3)c2)cn1 [Example 702, (R)-2-amino-N-(1-(1-benzyl-1H-indole-2-carbonyl)pyrrolidin-3-yl)-5-(1-methyl-1H-pyrazol-4-yl)nicotinamide] | > 1000 | > 1000 |
| Nc1ncc(-c2ccc(C(=O)N3CCOCC3)cc2)cc1C(=O)N[C@@H]1CCN(C(=O)c2ccc(-c3ccccc3Cl)cc2)C1 [Example 590, (R)-2-amino-N-(1-(2′-chloro-[1,1′-biphenyl]-4-carbonyl)pyrrolidin-3-yl)-5-(4-(morpholine-4-carbonyl)phenyl)nicotinamide] | > 1000 | 10 to 100 |
| Cn1cc(-c2cnc(N)c(C(=O)N[C@@H]3CCN(C(=O)c4cc5cc(F)ccc5[nH]4)C3)c2)cn1 [Example 696, (R)-2-amino-N-(1-(5-fluoro-1H-indole-2-carbonyl)pyrrolidin-3-yl)-5-(1-methyl-1H-pyrazol-4-yl)nicotinamide] | > 1000 | > 1000 |
| Cn1cc(-c2cnc(N)c(C(=O)N[C@@H]3CCN(C(=O)c4ccc(-c5ccc(C6=CCNCC6)cc5)cc4)C3)c2)cn1 [Example 755, (R)-2-amino-5-(1-methyl-1H-pyrazol-4-yl)-N-(1-(4′-(1,2,3,6-tetrahydropyridin-4-yl)-[1,1′-biphenyl]-4-carbonyl)pyrrolidin-3-yl)nicotinamide] | > 1000 | > 1000 |
| Cn1cc(-c2cnc(N)c(C(=O)N[C@@H]3CCN(C(=O)c4ccc(-c5ccc(Oc6ccc(N)cc6)cc5)cc4)C3)c2)cn1 [Example 505, (R)-2-amino-N-(1-(4′-(4-aminophenoxy)-[1,1′-biphenyl]-4-carbonyl)pyrrolidin-3-yl)-5-(1-methyl-1H-pyrazol-4-yl)nicotinamide] | > 1000 | 100 to 1000 |
| CN1CCN(Cc2ccc(-c3ccc(C(=O)N4CC[C@@H](Nc5n[nH]c6ncc(-c7cnn(C)c7)cc56)C4)cc3)cc2)CC1 [Example 794, (R)-(3-((5-(1-methyl-1H-pyrazol-4-yl)-1H-pyrazolo[3,4-b]pyridin-3-yl)amino)pyrrolidin-1-yl)(4′-((4-methylpiperazin-1-yl)methyl)-[1,1′-biphenyl]-4-yl)methanone] | > 1000 | 10 to 100 |
| CC(C)(c1ccc(-c2cnc(N)c(C(=O)N[C@@H]3CCN(C(=O)c4ccc(-c5ccccc5)cc4)C3)c2)cc1)N1CCN(CCO)CC1 [Example 565, (R)—N -(1-([1,1′-biphenyl]-4-carbonyl)pyrrolidin-3-yl)-2-amino-5-(4-(2-(4-(2-hydroxyethyl)piperazin-1-yl)propan-2-yl)phenyl)nicotinamide] | > 1000 | 10 to 100 |
| CN1CCC(Cc2ccc(-c3ccc(C(=O)N4CC[C@@H](NC(=O)c5cc(-c6cnn(C)c6)cnc5N)C4)cc3)cc2)CC1 [Example 643, (R)-2-amino-5-(1-methyl-1H-pyrazol-4-yl)-N-(1-(4′-((1-methylpiperidin-4-yl)methyl)-[1,1′-biphenyl]-4-carbonyl)pyrrolidin-3-yl)nicotinamide] | > 1000 | 100 to 1000 |
| Cn1cc(-c2cnc(N)c(C(=O)NC[C@@H]3CCCN3C(=O)c3ccc(-c4ccccc4)cc3)c2)cn1 [Example 734, (S)—N-((1-([1,1′-biphenyl]-4-carbonyl)pyrrolidin-2-yl)methyl)-2-amino-5-(1-methyl-1H-pyrazol-4-yl)nicotinamide] | > 1000 | > 1000 |
| Cn1cc(-c2cnc(N)c(C(=O)N[C@@H]3CCN(C(=O)C(=O)c4ccccc4)C3)c2)cn1 [Example 546, (R)-2-amino-5-(1-methyl-1H-pyrazol-4-yl)-N-(1-(2-oxo-2-phenylacetyl)pyrrolidin-3-yl)nicotinamide] | > 1000 | > 1000 |
| Cc1cscc1-c1ccc(C(=O)N2CC[C@@H](NC(=O)c3cc(-c4cnn(C)c4)cnc3N)C2)cc1 [Example 523, (R)-2-amino-5-(1-methyl-1H-pyrazol-4-yl)-N-(1-(4-(4-methylthiophen-3-yl)benzoyl)pyrrolidin-3-yl)nicotinamide] | 500 to 1000 | 10 to 100 |
| Cn1cc(-c2cnc(N)c(C(=O)N[C@@H]3CCN(C(=O)c4ccc(-c5ccc(CO)cc5)cc4)C3)c2)cn1 [Example 747, (R)-2-amino-N-(1-(4′-(hydroxymethyl)-[1,1′-biphenyl]-4-carbonyl)pyrrolidin-3-yl)-5-(1-methyl-1H-pyrazol-4-yl)nicotinamide] | > 1000 | 100 to 1000 |
| Cn1cc(-c2cnc(N)c(C(=O)N[C@@H]3CCN(C(=O)c4ccc(Oc5ccc([N+](=O)[O-])cc5)cc4)C3)c2)cn1 [Example 831, (R)-2-amino-5-(1-methyl-1H-pyrazol-4-yl)-N-(1-(4-(4-nitrophenoxy)benzoyl)pyrrolidin-3-yl)nicotinamide] | > 1000 | 100 to 1000 |
| Cn1cc(-c2cnc(N)c(C(=O)N[C@@H]3CCN(C(=O)c4ccc(-c5cccc(CO)c5)cc4)C3)c2)cn1 [Example 748, (R)-2-amino-N-(1-(3′-(hydroxymethyl)-[1,1′-biphenyl]-4-carbonyl)pyrrolidin-3-yl)-5-(1-methyl-1H-pyrazol-4-yl)nicotinamide] | 100 to 500 | 10 to 100 |
| Nc1ncc(-c2ccc(F)nc2)cc1C(=O)N[C@@H]1CCN(C(=O)c2ccc(-c3ccc(F)cc3Cl)cc2)C1 [Example 774, (R)-6-amino-N-(1-(2′-chloro-4′-fluoro-[1,1′-biphenyl]-4-carbonyl)pyrrolidin-3-yl)-6^1-fluoro-[3,3′-bipyridine]-5-carboxamide] | 100 to 500 | 10 to 100 |
| Cn1cc(-c2cnc(N)c(C(=O)N[C@@H]3CCN(C(=O)c4cc5ccccc5[nH]4)C3)c2)cn1 [Example 697, (R)—N-(1-(1H-indole-2-carbonyl)pyrrolidin-3-yl)-2-amino-5-(1-methyl-1H-pyrazol-4-yl)nicotinamide] | > 1000 | > 1000 |
| CC(/C=C/c1ccc(C(=O)N2CC[C@@H](NC(=O)c3cc(-c4cnn(C)c4)cnc3N)C2)cc1)N1CCN(CCO)CC1 (stereo partly drawn) [Example 823, 2-amino-N-((3R)-1-(4-((E)-3-(4-(2-hydroxyethyl)piperazin-1-yl)but-1-en-1-yl)benzoyl)pyrrolidin-3-yl)-5-(1-methyl-1H-pyrazol-4-yl)nicotinamide] | > 1000 | 10 to 100 |
| CCN(c1ccc2cc(C(=O)N3CC[C@@H](NC(=O)c4cc(-c5cnn(C)c5)cnc4N)C3)ccc2c1)C1CC(C)(C)N(C)C(C)(C)C1 [Example 721, (R)-2-amino-N-(1-(6-(ethyl(1,2,2,6,6-pentamethylpiperidin-4-yl)amino)-2-naphthoyl)pyrrolidin-3-yl)-5-(1-methyl-1H-pyrazol-4-yl)nicotinamide] | 100 to 500 | 10 to 100 |
| Cn1cc(-c2cnc(N)c(C(=O)NC[C@@H]3CCCN3C(=O)c3cccc(-c4ccccc4)c3)c2)cn1 [Example 735, (S)—N-((1-([1,1′-biphenyl]-3-carbonyl)pyrrolidin-2-yl)methyl)-2-amino-5-(1-methyl-1H-pyrazol-4-yl)nicotinamide] | > 1000 | > 1000 |
| Cn1cc(-c2cnc(N)c(C(=O)N[C@@H]3CCN(C(=O)c4ccc(Oc5cccc([N+](=O)[O-])c5)cc4)C3)c2)cn1 [Example 829, (R)-2-amino-5-(1-methyl-1H-pyrazol-4-yl)-N-(1-(4-(3-nitrophenoxy)benzoyl)pyrrolidin-3-yl)nicotinamide] | > 1000 | > 1000 |
| CN1CCC(COc2ccc3cc(C(=O)N4CC[C@@H](NC(=O)c5cc(-c6cnn(C)c6)cnc5N)C4)ccc3c2)CC1 [Example 767, (R)-2-amino-5-(1-methyl-1H-pyrazol-4-yl)-N-(1-(6-((1-methylpiperidin-4-yl)methoxy)-2-naphthoyl)pyrrolidin-3-yl)nicotinamide] | > 1000 | 100 to 1000 |
| Cn1cc(-c2cnc(N)c(C(=O)N[C@@H]3CCN(C(=O)c4ccc(-c5ccc(Oc6ccc(C(N)=O)cc6)cc5)cc4)C3)c2)cn1 [Example 788, (R)-2-amino-N-(1-(4′-(4-carbamoylphenoxy)-[1,1′-biphenyl]-4-carbonyl)pyrrolidin-3-yl)-5-(1-methyl-1H-pyrazol-4-yl)nicotinamide] | > 1000 | 10 to 100 |
| CN(c1ccc2cc(C(=O)N3CC[C@@H](NC(=O)c4cc(-c5cnn(C)c5)cnc4N)C3)ccc2c1)C1CCNCC1 [Example 818, (R)-2-amino-N-(1-(6-(methyl(piperidin-4-yl)amino)-2-naphthoyl)pyrrolidin-3-yl)-5-(1-methyl-1H-pyrazol-4-yl)nicotinamide] | > 1000 | 10 to 100 |
| Cn1cc(-c2cnc(N)c(C(=O)N[C@@H]3CCN(C(=O)c4ccc(-c5ccc6c(cnn6C)c5)cc4)C3)c2)cn1 [Example 757, (R)-2-amino-N-(1-(4-(1-methyl-1H-indazol-5-yl)benzoyl)pyrrolidin-3-yl)-5-(1-methyl-1H-pyrazol-4-yl)nicotinamide] | > 1000 | 100 to 1000 |

Reference: patent US12378224B2 (Dong-A Socio Holdings Co., Ltd., priority 2016, dated 2025)
